US9730447B2, “Fungicidal amides” (E I DU PONT DE NEMOURS AND COMPANY, priority 2013, dated 2017)
Marks after values point to notes of the source that are not given here.

Columns and labels:
Assay type in all cases: in vivo
[1] = test system: Puccinia recondite f. sp. tritici; assay: Test D: preventive spray on wheat seedlings, Puccinia recondite f. sp. tritici (wheat leaf rust), visual disease rating
From the text: (§1) General protocol for preparing test suspensions for Tests A-E: the test compounds were first dissolved in acetone in an amount equal to 3% of the final volume and then suspended at the desired concentration (in ppm) in acetone and purified water (50/50 mix by volume) containing 250 ppm of the surfactant Trem® 014 (polyhydric alcohol esters). The resulting test suspensions were then used in Tests A-E. Compounds were sprayed with either a 40 ppm or 10 ppm (*) test suspension to the point of run-off on the test plants which is the equivalent of a rate of 160 g ai/ha or 40 g ai/ha, respectively.
The test suspension was sprayed to the point of run-off on wheat seedlings. The following day the seedlings were inoculated with a spore suspension of Puccinia recondite f. sp. tritici; (the causal agent of wheat leaf rust) and incubated in a saturated atmosphere at 20° C. for 24 h, and then moved to a growth chamber at 20° C. for 6 days, after which time visual disease ratings were made.
(§2) Results for Tests A-E are given in Table A. In the Table, a rating of 100 indicates 100% disease control and a rating of 0 indicates no disease control (relative to the controls). A dash (-) indicates no test results.

Septoria tritici = assay: Test C: preventive spray on wheat seedlings, Septoria tritici (wheat leaf blotch), visual disease rating
From the text: as §1
The test suspension was sprayed to the point of run-off on wheat seedlings. The following day the seedlings were inoculated with a spore suspension of Septoria tritici (the causal agent of wheat leaf blotch) and incubated in a saturated atmosphere at 24° C. for 48 h, and then moved to a growth chamber at 20° C. for 21 days, after which time visual disease ratings were made.
as §2

[2] = test system: Erysiphe graminis f. sp. tritici; assay: Test E: preventive spray on wheat seedlings, Erysiphe graminis f. sp. tritici (wheat powdery mildew), visual disease rating
From the text: as §1
The test suspension was sprayed to the point of run-off on wheat seedlings. The following day the seedlings were inoculated with a spore dust of Erysiphe graminis f. sp. tritici, (the causal agent of wheat powdery mildew) and incubated in a growth chamber at 20° C. for 8 days, after which time visual disease ratings were made.
as §2

[3] = test system: Stagonospora nodorum (also known as Septoria nodorum); assay: Test B: preventive spray on wheat seedlings, Stagonospora nodorum (wheat glume blotch), visual disease rating
From the text: as §1
The test suspension was sprayed to the point of run-off on wheat seedlings. The following day the seedlings were inoculated with a spore suspension of Stagonospora nodorum (also known as Septoria nodorum; the causal agent of wheat glume blotch) and incubated in a saturated atmosphere at 20° C. for 48 h, and then moved to a growth chamber at 20° C. for 6 days, after which time visual disease ratings were made.
as §2

[4] = 100 = 100% disease control, 0 = no control, unmarked values
[5] = values marked with asterisk (*), meaning not given

| SMILES | Test D disease control rating [1, 4] | Test C disease control rating (Septoria tritici; [4]) | Test E disease control rating [2, 4] | Test B disease control rating [3, 4] | Test D disease control rating [1, 5] | Test C disease control rating (Septoria tritici; [5]) | Test E disease control rating [2, 5] | Test B disease control rating [3, 5] |
| --- | --- | --- | --- | --- | --- | --- | --- | --- |
| CCOC(=O)C1(C)CC(c2ccc(-c3ccccc3NC(=O)c3ncccc3C(F)(F)F)cn2)=NO1 (racemic) [compound 144] | 68% | 81% | 0% | 0% | – | – | – | – |
| CCOC(=O)C1CC(c2ccc(-c3ccccc3NC(=O)c3ncccc3C(F)(F)F)cn2)=NO1 (racemic) [compound 145] | 0% | 26% | 0% | 0% | – | – | – | – |
| CC1(C(=O)O)CC(c2ccc(-c3ccccc3NC(=O)c3ncccc3C(F)(F)F)cn2)=NO1 (racemic) [compound 146] | 0% | 1% | 0% | 0% | – | – | – | – |
| O=C(NCCc1ncc(-n2ccc(C(F)(F)F)n2)cn1)c1ccccc1C(F)(F)F [Compound 177] | 0% | 91% | 79% | – | – | – | – | – |
| Cc1ccn(-c2cnc(CCNC(=O)c3ncccc3C(F)(F)F)nc2)n1 [Compound 178] | – | – | – | – | 0* % | 0* % | 0* % | 3* % |
| O=C(NCCc1ncc(-n2ccc(Br)n2)cn1)c1ncccc1C(F)(F)F [Compound 179] | – | – | – | 0% | 0* % | 5* % | 0* % | – |
| O=C(NCCc1ncc(-n2cc(Br)cn2)cn1)c1ncccc1C(F)(F)F [Compound 180] | – | – | – | 0% | 0* % | 2* % | 0* % | – |
| O=C(NCCc1ncc(-n2ccc(Cl)n2)cn1)c1ncccc1C(F)(F)F [Compound 181] | – | – | – | – | 9* % | 20* % | 0* % | 64* % |
| Cc1cnn(-c2cnc(CCNC(=O)c3ncccc3C(F)(F)F)nc2)c1 [Compound 182] | – | – | – | 0% | 0* % | 9* % | 0* % | – |
| O=C(Nc1ccccc1-c1ccc(-n2cccn2)nc1)c1ncccc1C(F)(F)F [compound 12] | 99% | 100% | 98% | 100% | – | – | – | – |
| O=C(Nc1ccccc1-c1ccc(-n2cc(Br)cn2)nc1)c1ncccc1C(F)(F)F [compound 14] | 99% | 100% | 98% | 100% | – | – | – | – |
| Cn1cc(C(=O)Nc2ccccc2-c2ccc(-n3cccn3)nc2)c(C(F)F)n1 [compound 15] | 100% | 100% | 97% | 99% | – | – | – | – |
| COc1cccc(-c2cnn(-c3ccc(-c4ccccc4NC(=O)c4ncccc4C(F)(F)F)cn3)c2)c1 [compound 16] | 99% | 100% | 69% | 100% | – | – | – | – |
| COc1cccc(C2CC(c3ccc(-c4ccccc4NC(=O)c4cn(C)nc4C(F)F)cn3)=NO2)c1 (stereo not shown) [compound 102] | 100% | 97% | 73% | 99% | – | – | – | – |
| N#Cc1cc(-c2ccccc2NC(=O)c2ncccc2C(F)(F)F)cnc1-n1ccc(C(F)(F)F)n1 [compound 105] | 100% | – | 81% | – | – | – | – | – |
| Cn1cc(C(=O)Nc2ccccc2-c2cnc(-n3ccc(C(F)(F)F)n3)c(C#N)c2)c(C(F)F)n1 [compound 106] | 100% | – | 98% | – | – | – | – | – |
| Cc1nc(C(F)(F)F)c(C(=O)Nc2ccccc2-c2cnc(-n3ccc(C(F)(F)F)n3)c(C#N)c2)s1 [compound 107] | 99% | – | 43% | – | – | – | – | – |
| N#Cc1cc(-c2ccccc2NC(=O)c2nccnc2Cl)cnc1-n1ccc(C(F)(F)F)n1 [compound 108] | 96% | – | 87% | – | – | – | – | – |

| SMILES | Test D disease control rating [1, 4] | Test C disease control rating (Septoria tritici; [4]) | Test E disease control rating [2, 4] | Test B disease control rating [3, 4] | Test D disease control rating [1, 5] | Test C disease control rating (Septoria tritici; [5]) | Test E disease control rating [2, 5] | Test B disease control rating [3, 5] |
| --- | --- | --- | --- | --- | --- | --- | --- | --- |
| CCOC(=O)C1(C)CC(c2ccc(-c3ccccc3NC(=O)c3cn(C)nc3C(F)F)cn2)=NO1 (stereo not shown) [compound 109] | 74% | 66% | 0% | – | – | – | – | – |
| CCOC(=O)C1CC(c2ccc(-c3ccccc3NC(=O)c3cn(C)nc3C(F)F)cn2)=NO1 (stereo not shown) [compound 110] | 68% | 22% | 0% | – | – | – | – | – |
| O=C(Nc1ccccc1-c1cnc(-n2ccc(C(F)(F)F)n2)c(Cl)c1)c1cccs1 [compound 111] | – | – | – | – | 84* % | 63* % | 0* % | – |
| O=C(Nc1ccccc1-c1cnc(-n2ccc(C(F)(F)F)n2)c(Cl)c1)c1ccsc1 [compound 112] | – | – | – | – | 0* % | 77* % | 0* % | – |
| CC1=C(C(=O)Nc2ccccc2-c2cnc(-n3ccc(C(F)(F)F)n3)c(F)c2)SCCO1 [compound 113] | 97% | 77% | 0% | 0% | – | – | – | – |
| Cc1cc(C)c(C(=O)Nc2ccccc2-c2cnc(-n3ccc(C(F)(F)F)n3)c(Cl)c2)s1 [compound 116] | – | – | – | – | 99* % | 99* % | 64* % | – |
| O=C(Nc1ccccc1-c1cnc(-n2ccc(C(F)(F)F)n2)c(Cl)c1)c1occc1Br [compound 117] | – | – | – | – | 99* % | 99* % | 64* % | – |
| Cc1occc1C(=O)Nc1ccccc1-c1cnc(-n2ccc(C(F)(F)F)n2)c(Cl)c1 [compound 118] | – | – | – | – | 68* % | 42* % | 0* % | – |
| O=C(Nc1ccccc1-c1cnc(-n2ccc(C(F)(F)F)n2)c(Cl)c1)c1ccsc1Cl [compound 120] | – | – | – | – | 100* % | 98* % | 0* % | – |
| Cc1oncc1C(=O)Nc1ccccc1-c1cnc(-n2ccc(C(F)(F)F)n2)c(Cl)c1 [compound 128] | – | – | – | – | 67* % | 42* % | 13* % | – |
| Cn1ncnc1C(=O)Nc1ccccc1-c1cnc(-n2ccc(C(F)(F)F)n2)c(Cl)c1 [compound 129] | – | – | – | – | 17* % | 88* % | 0* % | – |
| Cc1sccc1C(=O)Nc1ccccc1-c1cnc(-n2ccc(C(F)(F)F)n2)c(Cl)c1 [compound 138] | – | – | – | – | 100* % | 99* % | 64* % | – |
| O=C(Nc1ccccc1-c1cnc(-n2ccc(C(F)(F)F)n2)c(Cl)c1)c1ccsc1Br [compound 139] | – | – | – | – | 100* % | 98* % | 40* % | – |
| CSc1ccsc1C(=O)Nc1ccccc1-c1cnc(-n2ccc(C(F)(F)F)n2)c(Cl)c1 [compound 141] | – | – | – | – | 97* % | 76* % | 0* % | – |
| CSc1sccc1C(=O)Nc1ccccc1-c1cnc(-n2ccc(C(F)(F)F)n2)c(Cl)c1 [compound 142] | – | – | – | – | 97* % | 88* % | 0* % | – |
| N#Cc1cc(-c2ccccc2NC(=O)c2sccc2I)cnc1-n1ccc(C(F)(F)F)n1 [compound 143] | – | – | – | – | 100* % | 100* % | 64* % | – |
| Cn1cc(C(=O)Nc2ccccc2-c2cnc(-n3cnc(C(F)(F)F)c3)c(F)c2)c(C(F)F)n1 [compound 153] | – | – | – | – | 99* % | 99* % | 40* % | – |
| Cc1ncsc1C(=O)Nc1ccccc1-c1cnc(-n2ccc(C(F)(F)F)n2)c(Cl)c1 [compound 164] | – | – | – | – | 91* % | 96* % | 69* % | – |
